Organism: Rattus norvegicus
Assay: Open TG-GATES - Regimen: Daily Repeat
Format: toxicity, organism-based, Sprague-Dawley
Parameters: regimen Daily Repeat, gender Male, age 6 weeks
Settings: in vivo, po, 0 mg/kg, route gavage, dose level Control; for APTT / Bas / Eos / Fbg / Hb / Ht / Lym / MCH / MCHC / MCV / Mono / Neu / PT / Plat / RBC / Ret / WBC: tissue Blood; for KIDNEY_L / KIDNEY_R / KIDNEY_TOTAL: tissue Kidney; for LIVER: tissue Liver; for A/G / ALP / ALT / AST / BUN / CRE / Ca / Cl / DBIL / GLC / IP / K / LDH / Na / PL / RALB / TBIL / TC / TG / TP / gamma-GTP: tissue Plasma

SMILES: NNC(=O)c1ccncc1 [ISONIAZID]
- TERMINAL_BW (72 h, time 3 day): 219.4 g
- APTT (72 h, time 3 day): 14.3 s
- Bas (72 h, time 3 day): 0.2%
- Eos (72 h, time 3 day): 2%
- Fbg (72 h, time 3 day): 229.4 mg/dL
- Hb (72 h, time 3 day): 13.6 g/dL
- Ht (72 h, time 3 day): 40.8%
- Lym (72 h, time 3 day): 74%
- MCH (72 h, time 3 day): 21.7 pg
- MCHC (72 h, time 3 day): 33.2%
- MCV (72 h, time 3 day): 65.2 fL
- Mono (72 h, time 3 day): 8.8%
- Neu (72 h, time 3 day): 15.6%
- PT (72 h, time 3 day): 12.1 s
- Plat (72 h, time 3 day): 120.9 x10_4/uL
- RBC (72 h, time 3 day): 626.2 x10_4/ul
- Ret (72 h, time 3 day): 8.2%
- WBC (72 h, time 3 day): 101.8 x10_2/uL
- KIDNEY_L (72 h, time 3 day): 0.9 g
- KIDNEY_R (72 h, time 3 day): 1 g
- KIDNEY_TOTAL (72 h, time 3 day): 1.9 g
- LIVER (72 h, time 3 day): 11.3 g
- A/G (72 h, time 3 day): 1.8
- ALP (72 h, time 3 day): 836.8 IU/L
- ALT (72 h, time 3 day): 33.6 IU/L
- AST (72 h, time 3 day): 61.8 IU/L
- BUN (72 h, time 3 day): 19 mg/dL
- CRE (72 h, time 3 day): 0.5 mg/dL
- Ca (72 h, time 3 day): 10.8 mg/dL
- Cl (72 h, time 3 day): 103.8 meq/L
- DBIL (72 h, time 3 day): 0.068 mg/dL
- GLC (72 h, time 3 day): 209.2 mg/dL
- IP (72 h, time 3 day): 7.6 mg/dL
- K (72 h, time 3 day): 5.1 meq/L
- LDH (72 h, time 3 day): 102 IU/L
- Na (72 h, time 3 day): 139.4 meq/L
- PL (72 h, time 3 day): 163.4 mg/dL
- RALB (72 h, time 3 day): 3.8 g/dL
- TBIL (72 h, time 3 day): 0.3 mg/dL
- TC (72 h, time 3 day): 85.8 mg/dL
- TG (72 h, time 3 day): 110.2 mg/dL
- TP (72 h, time 3 day): 6 g/dL
- gamma-GTP (72 h, time 3 day): 1.6 IU/L
- TERMINAL_BW ([…], time 7 day): 251.9 g
- TERMINAL_BW ([…], time 14 day): 294 g
- TERMINAL_BW ([…], time 28 day): 374.9 g
- APTT ([…], time 7 day): 14.6 s
- Bas ([…], time 7 day): 0%
- Eos ([…], time 7 day): 1%
- Fbg ([…], time 7 day): 235 mg/dL
- Hb ([…], time 7 day): 13.8 g/dL
- Ht ([…], time 7 day): 41.5%
- Lym ([…], time 7 day): 76.8%
- MCH ([…], time 7 day): 21.4 pg
- MCHC ([…], time 7 day): 33.4%
- MCV ([…], time 7 day): 64.2 fL
- Mono ([…], time 7 day): 10.2%
- Neu ([…], time 7 day): 11.6%
- PT ([…], time 7 day): 12 s
- Plat ([…], time 7 day): 127.4 x10_4/uL
- RBC ([…], time 7 day): 646.4 x10_4/ul
- Ret ([…], time 7 day): 6%
- WBC ([…], time 7 day): 108.1 x10_2/uL
- APTT ([…], time 14 day): 16.1 s
- Bas ([…], time 14 day): 0%
- Eos ([…], time 14 day): 1.2%
- Fbg ([…], time 14 day): 224.2 mg/dL
- Hb ([…], time 14 day): 15.1 g/dL
- Ht ([…], time 14 day): 44.9%
- Lym ([…], time 14 day): 78.2%
- MCH ([…], time 14 day): 20.3 pg
- MCHC ([…], time 14 day): 33.5%
- MCV ([…], time 14 day): 60.6 fL
- Mono ([…], time 14 day): 5.5%
- Neu ([…], time 14 day): 14.8%
- PT ([…], time 14 day): 11.8 s
- Plat ([…], time 14 day): 114.6 x10_4/uL
- RBC ([…], time 14 day): 740.8 x10_4/ul
- Ret ([…], time 14 day): 3.9%
- WBC ([…], time 14 day): 109.8 x10_2/uL
- APTT ([…], time 28 day): 15.9 s
- Bas ([…], time 28 day): 0%
- Eos ([…], time 28 day): 1.2%
- Fbg ([…], time 28 day): 227.4 mg/dL
- Hb ([…], time 28 day): 15.5 g/dL
- Ht ([…], time 28 day): 46%
- Lym ([…], time 28 day): 85.8%
- MCH ([…], time 28 day): 19.7 pg
- MCHC ([…], time 28 day): 33.8%
- MCV ([…], time 28 day): 58.2 fL
- Mono ([…], time 28 day): 3.2%
- Neu ([…], time 28 day): 9.2%
- PT ([…], time 28 day): 12 s
- Plat ([…], time 28 day): 106.3 x10_4/uL
- RBC ([…], time 28 day): 790.6 x10_4/ul
- Ret ([…], time 28 day): 2.5%
- WBC ([…], time 28 day): 140.8 x10_2/uL
- KIDNEY_L ([…], time 7 day): 1.1 g
- KIDNEY_R ([…], time 7 day): 1.1 g
- KIDNEY_TOTAL ([…], time 7 day): 2.2 g
- KIDNEY_L ([…], time 14 day): 1.1 g
- KIDNEY_R ([…], time 14 day): 1.1 g
- KIDNEY_TOTAL ([…], time 14 day): 2.2 g
- KIDNEY_L ([…], time 28 day): 1.3 g
- KIDNEY_R ([…], time 28 day): 1.3 g
- KIDNEY_TOTAL ([…], time 28 day): 2.6 g
- LIVER ([…], time 7 day): 12.3 g
- LIVER ([…], time 14 day): 13.3 g
- LIVER ([…], time 28 day): 15.5 g
- A/G ([…], time 7 day): 1.7
- ALP ([…], time 7 day): 884.4 IU/L
- ALT ([…], time 7 day): 33 IU/L
- AST ([…], time 7 day): 56.6 IU/L
- BUN ([…], time 7 day): 19.6 mg/dL
- CRE ([…], time 7 day): 0.5 mg/dL
- Ca ([…], time 7 day): 10.6 mg/dL
- Cl ([…], time 7 day): 105 meq/L
- DBIL ([…], time 7 day): 0.074 mg/dL
- GLC ([…], time 7 day): 223.8 mg/dL
- IP ([…], time 7 day): 8.4 mg/dL
- K ([…], time 7 day): 5 meq/L
- LDH ([…], time 7 day): 115.2 IU/L
- Na ([…], time 7 day): 140.4 meq/L
- PL ([…], time 7 day): 163 mg/dL
- RALB ([…], time 7 day): 3.7 g/dL
- TBIL ([…], time 7 day): 0.3 mg/dL
- TC ([…], time 7 day): 81.6 mg/dL
- TG ([…], time 7 day): 130.2 mg/dL
- TP ([…], time 7 day): 5.9 g/dL
- gamma-GTP ([…], time 7 day): 1.2 IU/L
- A/G ([…], time 14 day): 1.6
- ALP ([…], time 14 day): 783.8 IU/L
- ALT ([…], time 14 day): 29.6 IU/L
- AST ([…], time 14 day): 62 IU/L
- BUN ([…], time 14 day): 19.2 mg/dL
- CRE ([…], time 14 day): 0.6 mg/dL
- Ca ([…], time 14 day): 10.4 mg/dL
- Cl ([…], time 14 day): 106.8 meq/L
- DBIL ([…], time 14 day): 0.002 mg/dL
- GLC ([…], time 14 day): 213.2 mg/dL
- IP ([…], time 14 day): 7.9 mg/dL
- K ([…], time 14 day): 5.1 meq/L
- LDH ([…], time 14 day): 160 IU/L
- Na ([…], time 14 day): 139.4 meq/L
- PL ([…], time 14 day): 151 mg/dL
- RALB ([…], time 14 day): 3.6 g/dL
- TBIL ([…], time 14 day): 0.3 mg/dL
- TC ([…], time 14 day): 76.4 mg/dL
- TG ([…], time 14 day): 144 mg/dL
- TP ([…], time 14 day): 5.9 g/dL
- gamma-GTP ([…], time 14 day): 0.4 IU/L
- A/G ([…], time 28 day): 1.4
- ALP ([…], time 28 day): 751.6 IU/L
- ALT ([…], time 28 day): 26.8 IU/L
- AST ([…], time 28 day): 56.4 IU/L
- BUN ([…], time 28 day): 19.4 mg/dL
- CRE ([…], time 28 day): 0.5 mg/dL
- Ca ([…], time 28 day): 10 mg/dL
- Cl ([…], time 28 day): 104.6 meq/L
- DBIL ([…], time 28 day): 0.06 mg/dL
- GLC ([…], time 28 day): 208.8 mg/dL
- IP ([…], time 28 day): 7.2 mg/dL
- K ([…], time 28 day): 4.4 meq/L
- LDH ([…], time 28 day): 73.4 IU/L
- Na ([…], time 28 day): 142.2 meq/L
- PL ([…], time 28 day): 141.8 mg/dL
- RALB ([…], time 28 day): 3.6 g/dL
- TBIL ([…], time 28 day): 0.2 mg/dL
- TC ([…], time 28 day): 70.6 mg/dL
- TG ([…], time 28 day): 125.6 mg/dL
- TP ([…], time 28 day): 6.2 g/dL
- gamma-GTP ([…], time 28 day): 1.4 IU/L
